PubChem BioAssay (NCI)
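Method: 48-hour compound exposure of cells in 96-well plates, five concentrations, linear interpolation of endpoints. GI50 marks 50% less growth. TGI denotes the concentration required for complete inhibition of growth.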

What was measured:
Test in all cases: growth of human tumour cells (NCI), 48 h
[1] = system: M14 melanoma
[2] = system: OVCAR-3 ovarian
[3] = system: NCI/ADR-RES ovarian
[4] = system: OVCAR-5 ovarian
[5] = system: HOP-62 NSCLC
[6] = system: NCI-H226 lung
[7] = system: ACHN renal
[8] = system: MOLT-4 leukemia
[9] = system: NCI-H522 lung
[10] = system: SR leukemia

| SMILES | TGI [1] [µM] | TGI [2] [µM] | TGI [3] [µM] | TGI [4] [µM] | TGI [5] [µM] | TGI [6] [µM] | TGI [7] [µM] | TGI [8] [µM] | TGI [9] [µM] | TGI [10] [µM] | GI50 [1] [µM] | GI50 [8] [µM] | GI50 [2] [µM] | GI50 [3] [µM] | GI50 [10] [µM] | GI50 [5] [µM] | GI50 [9] [µM] | GI50 [6] [µM] |
| --- | --- | --- | --- | --- | --- | --- | --- | --- | --- | --- | --- | --- | --- | --- | --- | --- | --- | --- |
| CC1(C)C(CCO)CC1n1ccc(=O)[nH]c1=O (stereo unspecified) | > 100 | > 100 | > 100 | > 100 | > 100 | > 100 | > 100 |  |  |  |  |  |  |  |  |  |  |  |
| N#C/C(=C\c1cccc(O)c1O)C(N)=O | > 100 | > 100 |  | > 100 | > 100 | 88 | > 100 | > 100 | 58.4 |  |  |  |  |  |  |  |  |  |
| COC(=O)NNC(c1ccc(Cl)cc1)c1ccc(Cl)cc1 | 31.9 | 31.9 | 39.8 | 40.3 |  | 35.3 |  | 55.9 | 38.7 | 54.8 |  |  |  |  |  |  |  |  |
| CC12CCCCC1=[N+]([O-])C(C)(C)N2O (stereo unspecified) | > 100 | > 100 | > 100 | > 100 | > 100 | > 100 | > 100 |  |  | > 100 |  |  |  |  |  |  |  |  |
| N/C(=N\NS(=O)(=O)c1ccccc1)Oc1ccc(Br)cc1Br | > 100 | > 100 |  | > 100 | > 100 | > 100 | > 100 | > 100 | > 100 | > 100 |  |  |  |  |  |  |  |  |
| Cc1cccc2c1c1ccc3c(c1n2C)C(=O)C=CC3=O | 17.9 | 5.08 |  | 29.5 | 37.8 | 32.8 | 18 | 2.99 | 2.97 | 4.45 |  |  |  |  |  |  |  |  |
| O=c1c2ccccc2nc(-c2ccccc2)n1NC(=S)Nc1ccc(Cl)cc1 | > 100 |  |  | > 100 | > 100 | > 100 | > 100 | > 100 | > 100 | > 100 |  |  |  |  |  |  |  |  |
| Cc1nnc2n(c1=O)CCN2C | > 100 | > 100 |  | > 100 | > 100 | > 100 | > 100 | > 100 |  | > 100 |  |  |  |  |  |  |  |  |
| C#CCNC(=O)ON1C(=O)CCC1=O |  | > 100 |  | > 100 | > 100 |  | > 100 | > 100 | > 100 |  |  |  |  |  |  |  |  |  |
| Cc1cc(NC(=O)C2C3C=CC(O3)C2C(=O)O)no1 (stereo unspecified) | > 100 | > 100 |  | > 100 | > 100 | > 100 | > 100 | > 100 | > 100 | 42.8 |  |  |  |  |  |  |  |  |
| Cc1cccc2nc3c(=O)[nH]c(=O)nc-3n(C)c12 | > 100 | > 100 | > 100 | > 100 | > 100 | > 100 | > 100 | > 100 | 87.4 |  |  |  |  |  |  |  |  |  |
| CNc1ccc2ncccc2c1[N+](=O)[O-] | > 100 | > 100 |  | > 100 | > 100 | > 100 | > 100 | > 100 |  | > 100 |  |  |  |  |  |  |  |  |
| CCSCN(C)c1nc(N(C)C)nc(N(C)C)n1 | > 100 | > 100 |  | > 100 | > 100 |  | > 100 | > 100 | 91.4 | > 100 |  |  |  |  |  |  |  |  |
| CC(C)(O)C1CC[C@]2(C)[C@H]3CC[C@@H]4[C@@]5(C)CCCC(C)(C)[C@@H]5CC[C@@]4(C)[C@]3(C)CC[C@@H]12 (stereo partly specified) | > 100 | > 100 | > 100 | > 100 | > 100 |  | > 100 | > 100 | > 100 |  |  |  |  |  |  |  |  |  |
| COc1cccc(/C(Cl)=C(\C=O)c2cccc(OC)c2)c1 | 26.1 | 29.1 |  | 38 | 30.1 | 24.8 | 25.8 | 78.3 | 11.4 | 39.5 |  |  |  |  |  |  |  |  |
| COC(=O)c1c(CC(Cc2ccc3c(c2)CCCC3)C(=O)OC)ccc2c1CCCC2 (stereo unspecified) | > 100 | > 100 | > 100 | > 100 | > 100 |  | > 100 | > 100 | > 100 | 86.7 |  |  |  |  |  |  |  |  |
| CN(C)/C=N\c1ccnc(=O)[nH]1 | > 100 | > 100 |  | > 100 | > 100 | > 100 | > 100 |  | > 100 |  |  |  |  |  |  |  |  |  |
| C[N+](C)(C)C=Nc1cccc2c1CCCC2 | > 100 | > 100 | > 100 | > 100 | > 100 | > 100 | > 100 | > 100 |  | > 100 |  |  |  |  |  |  |  |  |
| CS[C@]12[C@@H]3C(=O)N(C)C(=O)[C@@H]3[C@](C)(C(=O)N1C)C(=O)N2c1ccccc1 | > 100 | > 100 | > 100 | > 100 | > 100 | > 100 | > 100 | > 100 | > 100 |  |  |  |  |  |  |  |  |  |
| O=C1C[C@@H]2[C@@H](CCC23CC3)N1 | > 100 | > 100 |  | > 100 | > 100 | > 100 |  |  | > 100 |  |  |  |  |  |  |  |  |  |
| N#C/C(=C\c1ccc([N+](=O)[O-])s1)c1nc2cc(Cl)ccc2s1 | 1.68 | 3.23 | 6.07 |  | 5.44 | 2.36 |  | > 100 | 3.56 | > 100 | 0.382 | 2.11 | 1.42 | 1.06 | 0.323 | 1.83 | 1.18 | 0.69 |
| O=S(=O)(c1ccc(-c2nnc(-c3ccc(F)cc3)o2)cc1)c1ccc(-c2nnc(-c3ccc(F)cc3)o2)cc1 | > 100 | > 100 | > 100 | > 100 | > 100 | > 100 | 46.8 | > 100 | > 100 |  |  |  |  |  |  |  |  |  |
| Cc1c(OCc2ccccc2)c(=O)ccn1CCc1c[nH]c2ccccc12 | 86.2 | 51.4 | > 100 | > 100 | > 100 |  | > 100 | 31.9 | 69.4 | 79.7 |  |  |  |  |  |  |  |  |
